Results published in patent publication US6846827B1, “Pyrimidine derivatives” (AstraZeneca AB, priority 1999, dated 2005).

Key:
[1] = target: T1, p38α (Homo sapiens, UniProt Q16539); test: In vitro enzyme assay, p38α; type: biochemical; conditions: read-out: IC50 against p38α
T1 construct: c-myc (N); 6His (N); made in house; host or cells: E. coli (PET vectors)
Method: The ability of compounds of the invention to inhibit the enzyme p38 kinase was assessed. Activity of test compounds against each of the p38α and p38β isoforms of the enzyme was determined. […]
Test compounds were solubilised in DMSO and 10 μl of a 1:10 diluted sample in ‘Kinase Buffer’ was added to a well in a Microtiter plate. […] The precipitated protein was phosphorylated by p38 kinase and test compounds were assessed for their ability to inhibit this phosphorylation. The plates were filtered using a Canberra Packard Unifilter and washed with 2% TCA, dried overnight and counted on a Top Count scintillation counter.
Test compounds were tested initially at a single dose and active compounds were retested to allow IC50 values to be determined.

[2] = system: TNFα production in human whole blood; test: Human Whole Blood test: inhibition of LPS-stimulated TNFα production; type: cell-based
Method: The ability of the compounds of this invention to inhibit TNFα production was also assessed in a human whole blood assay. Human whole blood secretes TNFα when stimulated with LPS. This property of blood forms the basis of an assay which is used as a secondary test for compounds which profile as active in the PBMC test.
Heparinised (10 units/ml) human blood was obtained from volunteers. 160 μl whole blood were added to 96 well round-bottom plates (Corning 25850). Compounds were solubilised and serially diluted in RPMI 1640 medium (Gibco) supplemented with 50 units/ml penicillin, 50 μg/ml streptomycin and 2 mM glutamine, as detailed above. 20 μl of each test concentration was added to appropriate wells (triplicate cultures). 20 μl of RPMI 1640 medium supplemented with antibiotics and glutamine was added to control wells. Plates were incubated for 30 minutes at 37° C. (humidified incubator), prior to addition of 20 μl LPS (final concentration 10 μg/ml). RPMI 1640 medium was added to control wells. Six “LPS alone” and four “medium alone” controls were included on each plate. A known TNFα synthesis/secretion inhibitor was included in each test. Plates were incubated for 6 hours at 37° C. (humidified incubator). […] TNFα levels were measured by ELISA (see WO92/10190 and Current Protocols in Molecular Biology, vol 2 by Frederick M. Ausbel et al., John Wiley and Sons Inc.). […]

T1 sequence (Q16539 whole entry): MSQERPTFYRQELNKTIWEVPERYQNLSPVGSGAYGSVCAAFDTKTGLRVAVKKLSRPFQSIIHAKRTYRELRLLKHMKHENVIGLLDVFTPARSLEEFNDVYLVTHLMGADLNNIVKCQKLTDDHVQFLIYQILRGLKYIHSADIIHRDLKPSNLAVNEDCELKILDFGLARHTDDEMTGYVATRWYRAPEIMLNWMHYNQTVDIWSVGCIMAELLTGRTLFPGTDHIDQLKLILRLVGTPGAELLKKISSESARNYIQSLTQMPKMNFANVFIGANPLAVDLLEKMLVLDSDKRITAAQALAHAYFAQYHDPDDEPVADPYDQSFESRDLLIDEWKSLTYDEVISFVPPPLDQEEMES

Compound Cc1ccc(NC(=O)c2cc(F)cc(N3CCOCC3)c2)cc1Nc1cc(C(N)=O)nc(Cl)n1 [6-Carbamoyl-2-chloro-4-[5-(3-fluoro-5-morpholinobenzamido)-2-methylanilino]-pyrimidine] has an IC50 [1] of ~0.03 µM and an IC50 [2] of ~16 µM.
